Test results as given in ChEMBL document CHEMBL4261593, “Synthesis and antibacterial activity of novel 3-O-arylalkylcarbamoyl-3-O-descladinosyl-9-O-(2-chlorobenzyl)oxime clarithromycin derivatives” (2018).
≈ marks a conversion by molar mass, not a printed value.

Assays:
Type in all cases: functional
Streptococcus pyogenes [1] = assay: Antibacterial activity against erythromycin-susceptible Streptococcus pyogenes 1 after 24 hrs by broth dilution assay; settings: Streptococcus pyogenes, 1, 24 h
Staphylococcus aureus [2] = assay: Antibacterial activity against erythromycin-susceptible Staphylococcus aureus ATCC 25923 after 24 hrs by broth dilution assay; settings: ATCC 25923, 24 h
Escherichia coli = assay: Antibacterial activity against penicillin-susceptible Escherichia coli ATCC 25922 after 24 hrs by broth dilution assay; settings: ATCC 25922, 24 h
Pseudomonas aeruginosa = assay: Antibacterial activity against penicillin-susceptible Pseudomonas aeruginosa ATCC 27853 after 24 hrs by broth dilution assay; settings: ATCC 27853, 24 h
Bacillus subtilis = assay: Antibacterial activity against penicillin-susceptible Bacillus subtilis ATCC 9372 after 24 hrs by broth dilution assay; settings: ATCC 9372, 24 h
Staphylococcus aureus [3] = assay: Antibacterial activity against […] Staphylococcus aureus ATCC 29213 after 24 hrs by broth dilution assay; settings: ATCC 29213, 24 h
Staphylococcus aureus [4] = assay: Antibacterial activity against penicillin-resistant Staphylococcus aureus ATCC 31007 after 24 hrs by broth dilution assay; settings: ATCC 31007, 24 h
Streptococcus pyogenes [5] = assay: Antibacterial activity against erythromycin-resistant Streptococcus pyogenes 2 after 24 hrs by broth dilution assay; settings: Streptococcus pyogenes, 2, 24 h
Streptococcus pneumoniae [6] = assay: Antibacterial activity against erythromycin-resistant Streptococcus pneumoniae A22072 expressing mefA gene after 24 hrs by broth dilution assay; settings: A22072, 24 h
Streptococcus pneumoniae [7] = assay: Antibacterial activity against erythromycin-resistant Streptococcus pneumoniae B1 expressing ermB gene after 24 hrs by broth dilution assay; settings: B1, 24 h
Streptococcus pneumoniae [8] = assay: Antibacterial activity against erythromycin-resistant Streptococcus pneumoniae AB11 expressing ermB and mefA genes after 24 hrs by broth dilution assay; settings: AB11, 24 h
Streptococcus pneumoniae [9] = assay: Potency index, ratio of CAM MIC to compound MIC for antibacterial activity against erythromycin-resistant Streptococcus pneumoniae A22072
Streptococcus pneumoniae [10] = assay: Potency index, ratio of AZM MIC to compound MIC for antibacterial activity against erythromycin-resistant Streptococcus pneumoniae A22072
Streptococcus pyogenes [11] = assay: Potency index, ratio of CAM MIC to compound MIC for antibacterial activity against erythromycin-resistant Streptococcus pyogenes 2
Streptococcus pyogenes [12] = assay: Potency index, ratio of AZM MIC to compound MIC for antibacterial activity against erythromycin-resistant Streptococcus pyogenes 2
Staphylococcus aureus [13] = assay: Potency index, ratio of CAM MIC to compound MIC for antibacterial activity against penicillin-resistant Staphylococcus aureus ATCC 31007
Staphylococcus aureus [14] = assay: Potency index, ratio of AZM MIC to compound MIC for antibacterial activity against penicillin-resistant Staphylococcus aureus ATCC 31007

| SMILES | MIC (Streptococcus pyogenes [1]) [µg/mL] | MIC (Staphylococcus aureus [2]) [µg/mL] | MIC (Escherichia coli) [µg/mL] | MIC (Pseudomonas aeruginosa) [µg/mL] | MIC (Bacillus subtilis) [µg/mL] | MIC (Staphylococcus aureus [3]) [µg/mL] | MIC (Staphylococcus aureus [4]) [µg/mL] | MIC (Streptococcus pyogenes [5]) [µg/mL] | MIC (Streptococcus pneumoniae [6]) [µg/mL] | MIC (Streptococcus pneumoniae [7]) [µg/mL] | MIC (Streptococcus pneumoniae [8]) [µg/mL] | Ratio (Streptococcus pneumoniae [9]) | Ratio (Streptococcus pneumoniae [10]) | Ratio (Streptococcus pyogenes [11]) | Ratio (Streptococcus pyogenes [12]) | Ratio (Staphylococcus aureus [13]) | Ratio (Staphylococcus aureus [14]) |
| --- | --- | --- | --- | --- | --- | --- | --- | --- | --- | --- | --- | --- | --- | --- | --- | --- | --- |
| CCCNC(=O)O[C@H]1[C@H](C)[C@@H](O[C@@H]2O[C@H](C)C[C@H](N(C)C)[C@H]2O)[C@](C)(OC)C[C@@H](C)/C(=N/OCc2ccccc2Cl)[C@H](C)[C@@H](O)[C@](C)(O)[C@@H](CC)OC(=O)[C@@H]1C | 1 (≈ 1.23 µM) | 8 (≈ 9.82 µM) | 128 (≈ 157 µM) | 128 (≈ 157 µM) | 2 (≈ 2.46 µM) | 128 (≈ 157 µM) | 16 (≈ 19.6 µM) | 8 (≈ 9.82 µM) | 0.125 (≈ 0.153 µM) | 128 (≈ 157 µM) | 128 (≈ 157 µM) | 16 | 32 | 32 | 32 |  |  |
| CCCCNC(=O)O[C@H]1[C@H](C)[C@@H](O[C@@H]2O[C@H](C)C[C@H](N(C)C)[C@H]2O)[C@](C)(OC)C[C@@H](C)/C(=N/OCc2ccccc2Cl)[C@H](C)[C@@H](O)[C@](C)(O)[C@@H](CC)OC(=O)[C@@H]1C | 1 (≈ 1.21 µM) | 4 (≈ 4.83 µM) | 128 (≈ 154 µM) | 128 (≈ 154 µM) | 2 (≈ 2.41 µM) | 128 (≈ 154 µM) | 8 (≈ 9.66 µM) | 8 (≈ 9.66 µM) | 0.5 (≈ 0.604 µM) | 128 (≈ 154 µM) | 128 (≈ 154 µM) |  |  | 32 | 32 |  |  |
| CC[C@H]1OC(=O)[C@H](C)[C@@H](OC(=O)NCc2cccc(F)c2)[C@H](C)[C@@H](O[C@@H]2O[C@H](C)C[C@H](N(C)C)[C@H]2O)[C@](C)(OC)C[C@@H](C)/C(=N/OCc2ccccc2Cl)[C@H](C)[C@@H](O)[C@]1(C)O | 1 (≈ 1.14 µM) | 4 (≈ 4.54 µM) | 128 (≈ 145 µM) | 128 (≈ 145 µM) | 2 (≈ 2.27 µM) | 128 (≈ 145 µM) | 4 (≈ 4.54 µM) | 8 (≈ 9.09 µM) | 0.5 (≈ 0.568 µM) | 128 (≈ 145 µM) | 128 (≈ 145 µM) |  |  | 32 | 32 | 64 | 64 |
| CC[C@H]1OC(=O)[C@H](C)[C@@H](OC(=O)NCc2ccccc2)[C@H](C)[C@@H](O[C@@H]2O[C@H](C)C[C@H](N(C)C)[C@H]2O)[C@](C)(OC)C[C@@H](C)/C(=N/OCc2ccccc2Cl)[C@H](C)[C@@H](O)[C@]1(C)O | 2 (≈ 2.32 µM) | 8 (≈ 9.28 µM) | 128 (≈ 148 µM) | 128 (≈ 148 µM) | 2 (≈ 2.32 µM) | 128 (≈ 148 µM) | 4 (≈ 4.64 µM) | 16 (≈ 18.6 µM) | 0.5 (≈ 0.58 µM) | 128 (≈ 148 µM) | 128 (≈ 148 µM) |  |  |  |  | 64 | 64 |
| CC[C@H]1OC(=O)[C@H](C)[C@@H](OC(=O)NC2CC2)[C@H](C)[C@@H](O[C@@H]2O[C@H](C)C[C@H](N(C)C)[C@H]2O)[C@](C)(OC)C[C@@H](C)/C(=N/OCc2ccccc2Cl)[C@H](C)[C@@H](O)[C@]1(C)O | 1 (≈ 1.23 µM) | 8 (≈ 9.85 µM) | 128 (≈ 158 µM) | 128 (≈ 158 µM) | 4 (≈ 4.92 µM) | 128 (≈ 158 µM) | 16 (≈ 19.7 µM) | 16 (≈ 19.7 µM) | 0.125 (≈ 0.154 µM) | 128 (≈ 158 µM) | 128 (≈ 158 µM) | 16 | 32 |  |  |  |  |
| CC[C@H]1OC(=O)[C@H](C)[C@@H](OC(=O)NCc2ccc(Cl)cc2)[C@H](C)[C@@H](O[C@@H]2O[C@H](C)C[C@H](N(C)C)[C@H]2O)[C@](C)(OC)C[C@@H](C)/C(=N/OCc2ccccc2Cl)[C@H](C)[C@@H](O)[C@]1(C)O | 2 (≈ 2.23 µM) | 8 (≈ 8.92 µM) | 128 (≈ 143 µM) | 128 (≈ 143 µM) | 2 (≈ 2.23 µM) | 128 (≈ 143 µM) | 4 (≈ 4.46 µM) | 8 (≈ 8.92 µM) | 0.5 (≈ 0.557 µM) | 128 (≈ 143 µM) | 128 (≈ 143 µM) |  |  | 32 | 32 | 64 | 64 |
| CC[C@H]1OC(=O)[C@H](C)[C@@H](OC(=O)NCCc2ccc(O)cc2)[C@H](C)[C@@H](O[C@@H]2O[C@H](C)C[C@H](N(C)C)[C@H]2O)[C@](C)(OC)C[C@@H](C)/C(=N/OCc2ccccc2Cl)[C@H](C)[C@@H](O)[C@]1(C)O | 0.5 (≈ 0.56 µM) | 4 (≈ 4.48 µM) | 128 (≈ 143 µM) | 128 (≈ 143 µM) | 1 (≈ 1.12 µM) | 128 (≈ 143 µM) | 4 (≈ 4.48 µM) | 8 (≈ 8.96 µM) | 0.25 (≈ 0.28 µM) | 128 (≈ 143 µM) | 128 (≈ 143 µM) |  |  | 32 | 32 |  |  |
| CC[C@H]1OC(=O)[C@H](C)[C@@H](OC(=O)NCCc2ccc(OC)cc2)[C@H](C)[C@@H](O[C@@H]2O[C@H](C)C[C@H](N(C)C)[C@H]2O)[C@](C)(OC)C[C@@H](C)/C(=N/OCc2ccccc2Cl)[C@H](C)[C@@H](O)[C@]1(C)O | 2 (≈ 2.21 µM) | 16 (≈ 17.6 µM) | 128 (≈ 141 µM) | 128 (≈ 141 µM) | 2 (≈ 2.21 µM) | 128 (≈ 141 µM) | 4 (≈ 4.41 µM) | 8 (≈ 8.82 µM) | 1 (≈ 1.1 µM) | 128 (≈ 141 µM) | 128 (≈ 141 µM) |  |  |  |  |  |  |
| CC[C@H]1OC(=O)[C@H](C)[C@@H](OC(=O)NCc2ccc(N)cc2)[C@H](C)[C@@H](O[C@@H]2O[C@H](C)C[C@H](N(C)C)[C@H]2O)[C@](C)(OC)C[C@@H](C)/C(=N/OCc2ccccc2Cl)[C@H](C)[C@@H](O)[C@]1(C)O | 1 (≈ 1.14 µM) | 16 (≈ 18.2 µM) | 128 (≈ 146 µM) | 128 (≈ 146 µM) | 4 (≈ 4.56 µM) | 128 (≈ 146 µM) | 16 (≈ 18.2 µM) | 16 (≈ 18.2 µM) | 0.5 (≈ 0.57 µM) | 128 (≈ 146 µM) | 128 (≈ 146 µM) |  |  |  |  |  |  |
| CCCCCCNC(=O)O[C@H]1[C@H](C)[C@@H](O[C@@H]2O[C@H](C)C[C@H](N(C)C)[C@H]2O)[C@](C)(OC)C[C@@H](C)/C(=N/OCc2ccccc2Cl)[C@H](C)[C@@H](O)[C@](C)(O)[C@@H](CC)OC(=O)[C@@H]1C | 2 (≈ 2.33 µM) | 16 (≈ 18.7 µM) | 128 (≈ 149 µM) | 128 (≈ 149 µM) | 2 (≈ 2.33 µM) | 128 (≈ 149 µM) | 4 (≈ 4.67 µM) | 8 (≈ 9.34 µM) | 1 (≈ 1.17 µM) | 128 (≈ 149 µM) | 128 (≈ 149 µM) |  |  |  |  |  |  |
| CC[C@H]1OC(=O)[C@H](C)[C@@H](O[C@H]2C[C@@](C)(OC)[C@@H](O)[C@H](C)O2)[C@H](C)[C@@H](O[C@@H]2O[C@H](C)C[C@H](N(C)C)[C@H]2O)[C@](C)(O)C[C@@H](C)CN(C)[C@H](C)[C@@H](O)[C@]1(C)O [AZITHROMYCIN] | 0.03 (≈ 0.0401 µM) | 0.25 (≈ 0.334 µM) | 8 (≈ 10.7 µM) | 16 (≈ 21.4 µM) | 0.5 (≈ 0.668 µM) | 8 (≈ 10.7 µM) | 256 (≈ 342 µM) | 256 (≈ 342 µM) | 4 (≈ 5.34 µM) | 128 (≈ 171 µM) | 128 (≈ 171 µM) |  |  |  |  |  |  |
